Results: PubChem BioAssay (NCI)
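Five concentrations, 48 hours, 96-well plates. TGI denotes the concentration required for complete inhibition of growth.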

How the values were obtained:
Assay in all cases: DTP human tumour cell line panel, 48 h
[1] = test system: BT-549 breast
[2] = test system: U251 CNS
[3] = test system: COLO 205 colon
[4] = test system: NCI-H226 lung
[5] = test system: 786-0 renal
[6] = test system: TK-10 renal
[7] = test system: HCT-15 colon
[8] = test system: SNB-75 CNS
[9] = test system: HCC-2998 colon
[10] = test system: SF-268 CNS
[11] = test system: MDA-MB-435
[12] = test system: HOP-62 NSCLC
[13] = test system: MDA-MB-231 breast
[14] = test system: DU-145 prostate
[15] = test system: UACC-257 melanoma
[16] = test system: ACHN renal
[17] = test system: OVCAR-3 ovarian
[18] = test system: KM12 colon
[19] = test system: HT29 colon
[20] = test system: MOLT-4 leukemia

SMILES	TGI [1]	TGI [2]	TGI [3]	TGI [4]	TGI [5]	TGI [6]	TGI [7]	TGI [8]	TGI [9]	TGI [10]	TGI [11]	TGI [12]	TGI [13]	TGI [14]	TGI [15]	TGI [16]	TGI [17]	TGI [18]	TGI [19]	TGI [20]
C=C1CC(COc2ccc3ccc(=O)oc3c2)(c2ccccc2)OC1=O (stereo not given)	2.95 µM	22.2 µM	1.79 µM	12.4 µM	2.84 µM	2.99 µM	4.13 µM	12.2 µM	2.48 µM	11.9 µM	7.82 µM	26.9 µM	6.88 µM	7.21 µM	4.05 µM	3.61 µM	3.36 µM	13.5 µM	2.27 µM	4.16 µM
COc1cc(C2S/C(=C/c3ccccc3)C(=O)N2c2ccc([N+](=O)[O-])cc2)cc(OC)c1OC (stereo not given)	> 100 µM	> 100 µM	> 100 µM	> 100 µM	> 100 µM	> 100 µM	> 100 µM	> 100 µM	> 100 µM	> 100 µM	> 100 µM	> 100 µM	> 100 µM	> 89.1 µM	> 100 µM	> 100 µM	> 100 µM	> 100 µM	> 100 µM	> 100 µM
O=c1[nH]c2ccsc2c(=O)n1COCc1ccccc1	> 100 µM	> 100 µM	> 100 µM	> 100 µM	> 100 µM	> 100 µM	> 100 µM	> 100 µM	> 100 µM	> 100 µM	> 100 µM	> 100 µM	> 100 µM	> 100 µM	> 100 µM	> 100 µM	> 100 µM	> 100 µM	> 100 µM	> 100 µM
COC(=O)N/N=C(\C)C(CN1CCOCC1)C(c1ccccc1)c1cc2ccccc2oc1=O (stereo not given)	> 100 µM	> 100 µM	> 100 µM	> 100 µM	> 100 µM	> 100 µM	> 100 µM	> 100 µM	> 100 µM	> 100 µM	> 100 µM	> 100 µM	> 100 µM	> 100 µM	> 100 µM	> 100 µM	> 100 µM	> 100 µM	> 100 µM	> 100 µM
CCn1c(SCC(=O)NNC(=S)Nc2ccc(F)cc2)nc2ccccc2c1=O	> 100 µM	> 100 µM	> 100 µM	> 100 µM	> 100 µM	> 100 µM	> 100 µM	> 100 µM	> 100 µM	> 100 µM	> 100 µM	> 100 µM	> 100 µM	> 100 µM	> 100 µM	> 100 µM	> 100 µM	> 100 µM	> 100 µM	> 100 µM
CCn1c(=O)c2c3ccc(O)cc3oc2c2ccc(O)cc21	> 100 µM	> 100 µM	> 100 µM	> 100 µM	> 100 µM	> 100 µM	> 100 µM	> 100 µM	> 100 µM	> 100 µM	> 100 µM	> 100 µM	> 100 µM	> 100 µM	> 100 µM	88 µM	> 100 µM	> 100 µM	> 100 µM	> 100 µM
COC(=O)C(Cc1c[nH]c2ccccc12)NP(=O)(O)OCC1OC(n2cc(F)c(=O)[nH]c2=O)CC1O (stereo not given)	> 100 µM	> 100 µM	> 100 µM	> 100 µM	> 100 µM	> 100 µM	> 100 µM	> 100 µM	> 100 µM	> 100 µM	> 100 µM	> 100 µM	> 100 µM	> 100 µM	> 100 µM	> 100 µM	> 100 µM	> 100 µM	> 100 µM	> 100 µM
N#CC(C#N)=C1CCCCc2ccc([N+](=O)[O-])cc21	> 100 µM	> 100 µM	> 100 µM	> 100 µM	33 µM	> 100 µM	> 100 µM	> 100 µM	> 100 µM	> 100 µM	> 100 µM	> 100 µM	> 100 µM	> 100 µM	> 100 µM	> 100 µM	> 100 µM	> 100 µM	> 100 µM	> 100 µM
Cc1ccnc2nc3[nH]c4ccccc4c3cc12	> 100 µM	> 100 µM	> 100 µM	> 100 µM	83.7 µM	> 100 µM	> 100 µM	85.8 µM	> 100 µM	> 100 µM	> 100 µM	> 100 µM	> 100 µM	> 100 µM	> 100 µM	> 100 µM	> 100 µM	> 100 µM	> 100 µM	> 100 µM
CN1CCC/C1=C1\C(=O)c2cccn2C1=O	> 100 µM	> 100 µM	> 100 µM	> 100 µM	> 100 µM	> 100 µM	> 100 µM	> 100 µM	> 100 µM	> 100 µM	> 100 µM	> 100 µM	> 100 µM	> 100 µM	> 100 µM	> 100 µM	> 100 µM	> 100 µM	> 100 µM	> 100 µM
CC(C)(C)C(=O)Nc1cccc(-c2ccc[nH]2)n1	> 100 µM	> 100 µM	> 100 µM	> 100 µM	> 100 µM	> 100 µM	> 100 µM	> 100 µM	> 100 µM	> 100 µM	> 100 µM	> 100 µM	> 100 µM	> 100 µM	> 100 µM	> 100 µM	> 100 µM	> 100 µM	> 100 µM	> 100 µM
COc1ccc(C(=O)N2CCN(c3ccc4[nH]c(=O)oc4c3)CC2)cc1	> 100 µM	> 100 µM	> 100 µM	> 100 µM	> 100 µM	> 100 µM	> 100 µM	> 100 µM	> 100 µM	> 100 µM	> 100 µM	> 100 µM	> 100 µM	> 100 µM	> 100 µM	> 100 µM	> 100 µM	> 100 µM	> 100 µM	> 100 µM
C#C[C@]1(O)CC[C@H]2[C@@H]3CCC4=C/C(=N\OCCN5CCCC5)CC[C@]4(C)[C@H]3CC[C@@]21C	43.6 µM	> 49.4 µM	43.1 µM	55.5 µM	24.4 µM	38.3 µM	35 µM	24.7 µM	34.5 µM	30.1 µM	15 µM	26.7 µM	36.2 µM	41 µM	22.9 µM	47.2 µM	27.1 µM	19.6 µM	29.7 µM	17.9 µM
